The values below come from patent US11472788B2, “Benzoimidazoles as selective inhibitors of indoleamine 2,3-dioxygenases” (BEIGENE, LTD., priority 2017, dated 2022).

Structures are written as SMILES. A value given as a limit tells only on which side of the number the result lay.

Test [1] deals with Recombinant IDO1 (Homo sapiens (Human), UniProt P14902). The test can be described thus: IDO1 enzymatic assay. Format: biochemical. The note with it: 50 nM IDO1, 1.3 mM D-tryptophan, pH 7.5, read-out: Enzyme assay IC50. The protocol:
Recombinant IDO1 was overexpressed and purified from E. coli cells with an N-terminal His tag. IDO1 enzymatic assay was carried out using a methodology similar to described in the literature (J. Biol. Chem. (1980), 255, 1339-1345). The reaction mixture contains 50 nM IDO1, 1.3 mM D-tryptophan, 5 mM L-ascorbic acid, […] methylene Blue, 0.4 mg/mL catalase and compound (or DMSO) in a buffer containing 50 mM potassium phosphate pH 7.5 and 0.1% BSA. After incubation at 24° C. for 1.5 hours, absorbance of the reaction mixture was continuously read at 321 nm to monitor the formation of N′-formylkynurenine by a FULOstar OMEGA plate reader (BMG LABTECH) for 1 hour. The enzymatic activity was determined by measuring the slope of the linear absorbance increase as a function of time. The IC50s are calculated based on remaining enzyme activity in the presence of increasing concentrations of compounds.

The target of test [2] is cellular IDO1 in HeLa cells (Homo sapiens (Human), UniProt P14902). The test can be described thus: HeLa Cell-Based IDO1 Kyn (Kynurenine) Production Assay. The note with it: IFN-γ induced IDO1, 48 hours incubation, Kyn absorbance at 480 nm. The essentials: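 Compounds added to HeLa cells together with IFN-γ (100 ng/mL final) and 0.4 mM L-Trp, 48 h at 37 °C. Kynurenine in TCA-deproteinized supernatant measured colorimetrically with 4-(dimethylamino)benzaldehyde at 480 nm; IC50 from four-parameter logistic fit.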
cellular IDO1 in HeLa cells, sequence (P14902 whole entry): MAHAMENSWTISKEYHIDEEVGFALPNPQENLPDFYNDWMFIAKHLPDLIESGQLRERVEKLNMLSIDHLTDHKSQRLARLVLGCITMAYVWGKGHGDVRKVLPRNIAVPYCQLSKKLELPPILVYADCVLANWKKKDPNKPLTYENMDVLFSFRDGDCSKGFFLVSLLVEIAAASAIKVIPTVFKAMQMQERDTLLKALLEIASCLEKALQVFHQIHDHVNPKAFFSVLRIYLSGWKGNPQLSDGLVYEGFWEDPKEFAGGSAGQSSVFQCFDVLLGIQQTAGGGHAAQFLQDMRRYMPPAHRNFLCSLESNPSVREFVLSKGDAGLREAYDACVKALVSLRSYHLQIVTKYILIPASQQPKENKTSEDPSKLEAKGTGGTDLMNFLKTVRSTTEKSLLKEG

Recombinant IDO1, sequence (P14902 whole entry, species assumed): as the sequence (P14902 whole entry) above

For `Clc1ccc2[nH]c(CC3CCC(c4ccc5ccccc5n4)CC3)nc2c1` (stereo not drawn) [Example A18, 2-(4-((5-chloro-1H-benzo[d]imidazol-2-yl)methyl)cyclohexyl)quinoline], the concentration for half-maximal inhibition (IC50) in test [1] stood at 5300 nM. In addition, the 50% effective concentration (EC50) in test [2] amounted to 50 nM.

As for `Fc1ccc2nccc([C@H]3CC[C@H](Cc4nc5cc(C6CC6)ccc5[nH]4)CC3)c2c1` [Example A4a, 4-((1r,4r)-4-((5-cyclopropyl-1H-benzo[d]imidazol-2-yl)methyl)cyclohexyl)-6-fluoroquinoline], in test [1], the IC50 is over 10000 nM. For the same molecule, the concentration for a half-maximal effect (EC50) in test [2] is 131 nM.

Consider `Clc1ccc2[nH]c(C[C@H]3CC[C@@H](c4ccccc4)CC3)nc2c1` [Example A34b, 5-chloro-2-(((1s,4s)-4-phenylcyclohexyl)methyl)-1H-benzo[d]imidazole], for which the half-maximal inhibitory concentration (IC50) in test [1] was 4800 nM. In test [2], this molecule yielded an EC50 of 87 nM.

Regarding `Clc1ccc2[nH]c(C[C@H]3CC[C@H](c4ccccc4)CC3)nc2c1` [Example A34a, 5-chloro-2-(((1r,4r)-4-phenylcyclohexyl)methyl)-1H-benzo[d]imidazole], in test [1], the IC50 was determined as 8000 nM. In addition, a half-maximal response in test [2] (EC50) required 168 nM.

Consider `Clc1ccc2[nH]c(CC3CCC(c4cnc5ccccc5c4)CC3)nc2c1` (stereo not drawn) [Example A19, 3-(4-((5-chloro-1H-benzo[d]imidazol-2-yl)methyl)cyclohexyl)quinoline], for which the concentration for half-maximal inhibition (IC50) in test [1] is over 10000 nM. Besides, the EC50 in test [2] was 8.2 nM.

In the case of `Cc1cc2nc(C[C@H]3CC[C@H](c4ccnc5ccc(F)cc54)CC3)[nH]c2cc1C` [Example A9a, 4-((1r,4r)-4-((5,6-dimethyl-1H-benzo[d]imidazol-2-yl)methyl)cyclohexyl)-6-fluoroquinoline], in test [1], the IC50 was over 10000 nM. Also, a half-maximal response in test [2] (EC50) required 186 nM.

For the molecule `Fc1ccc([C@H]2CC[C@@H](Cc3nc4cc(Cl)ccc4[nH]3)CC2)cc1` [Example A30b, 5-chloro-2-(((1s,4s)-4-(4-fluorophenyl)cyclohexyl)methyl)-1H-benzo[d]imidazole], in test [1], the half-maximal inhibitory concentration (IC50) was over 10000 nM. In test [2], this molecule showed an EC50 of 39 nM.

As for `Clc1ccc2[nH]c(CC3CCN(c4ccnc5ccccc45)CC3)nc2c1` [Example A40, 4-(4-((5-chloro-1H-benzo[d]imidazol-2-yl)methyl)piperidin-1-yl)quinoline], the IC50 in test [1] is over 10000 nM. The molecule further displayed an EC50 in test [2] of 852 nM.

`c1ccc(C2CCC(Cc3nc4ccccc4[nH]3)CC2)cc1` (stereo not drawn) [Example A32, 2-((4-phenylcyclohexyl)methyl)-1H-benzo[d]imidazole]: the concentration for half-maximal inhibition (IC50) in test [1] was 8100 nM. Besides, the EC50 in test [2] came to 143 nM.

As to `Cc1ccc2[nH]c(C[C@H]3CC[C@H](c4ccnc5ccc(F)cc54)CC3)nc2c1` [Example A2a, 6-fluoro-4-((1r,4r)-4-((5-methyl-1H-benzo[d]imidazol-2-yl)methyl)cyclohexyl)quinoline], in test [1], the IC50 is over 10000 nM. Moreover, the EC50 in test [2] was 241 nM.

As for `Fc1ccc2nccc(C3CCC(c4nc5cc(Cl)c(F)cc5[nH]4)CC3)c2c1` (single isomer, unassigned) [Example C1b, 4-(4-(5-chloro-6-fluoro-1H-benzo[d]imidazol-2-yl)cyclohexyl)-6-fluoroquinoline], in test [2], a half-maximal response (EC50) required 24 nM.

For `CON(C)C(=O)c1ccc2nc([C@H](C)[C@H]3CC[C@@H](c4ccnc5ccc(F)cc54)CC3)[nH]c2c1` [Example B196], the EC50 in test [2] came to 26.5 nM.

As to `CC(c1nc2c(F)c(F)cc(Cl)c2[nH]1)[C@H]1CC[C@@H](c2ccnc3ccc(F)cc32)CC1` (stereo partly drawn) [Example B172, 4-((1s,4s)-4-(1-(7-chloro-4,5-difluoro-1H-benzo[d]imidazol-2-yl)ethyl)cyclohexyl)-6-fluoroquinoline], in test [2], the EC50 is 16.4 nM.

In test [2], `CC(c1nc2ccc(S(C)(=O)=O)cc2[nH]1)[C@H]1CC[C@@H](c2ccnc3ccc(F)cc32)CC1` (stereo partly drawn) [Example B167, 6-fluoro-4-((1s,4s)-4-(1-(6-(methylsulfonyl)-1H-benzo[d]imidazol-2-yl)ethyl)cyclohexyl)quinoline] returned a concentration giving a half-maximal response (EC50) of 18.8 nM.

Turning to `Fc1cc2nc(C[C@H]3CC[C@@H](c4ccc(F)c5ncccc54)CC3)[nH]c2cc1F` [Example A26b, 5-((1s,4s)-4-((5,6-difluoro-1H-benzo[d]imidazol-2-yl)methyl)cyclohexyl)-8-fluoroquinoline], the EC50 in test [2] was found to be 205 nM.

Consider `CC(c1nc2ccc(C(=O)NC3CCC3)cc2[nH]1)[C@H]1CC[C@@H](c2ccnc3ccc(F)cc32)CC1` (stereo partly drawn) [Example B164, N-cyclobutyl-2-(1-((1s,4s)-4-(6-fluoroquinolin-4-yl)cyclohexyl)ethyl)-1H-benzo[d]imidazole-6-carboxamide], for which the EC50 in test [2] was determined as 5.8 nM.

`C[C@@H](c1nc2cc(F)c(F)c(Cl)c2[nH]1)[C@H]1CC[C@H](c2ccnc3ccc(F)cc32)CC1` [Example B190, 4-((1R,4r)-4-((R)-1-(7-chloro-5,6-difluoro-1H-benzo[d]imidazol-2-yl)ethyl)cyclohexyl)-6-fluoroquinoline]: the EC50 in test [2] stood at 5.74 nM.

`CC(=O)c1ccc2nc([C@H](C)[C@H]3CC[C@@H](c4ccnc5ccc(F)cc54)CC3)[nH]c2c1` [Example B202, 1-(2-((R)-1-((1s,4S)-4-(6-fluoroquinolin-4-yl)cyclohexyl)ethyl)-1H-benzo[d]imidazol-6-yl)ethan-1-one] came in with an EC50 in test [2] of 2.9 nM.

As for `NC(=O)c1ccc2[nH]c([C@H]3CC[C@H](c4ccnc5ccc(F)cc54)CC3)nc2c1` [Example C9a, 2-((1r,4r)-4-(6-fluoroquinolin-4-yl)cyclohexyl)-1H-benzo[d]imidazole-5-carboxamide], in test [2], the EC50 was over 10000 nM.

The molecule `Fc1ccc2[nH]c([C@H]3CC[C@@H](c4ccnc5ccc(F)cc54)CC3)nc2c1` [Example C5b, 6-fluoro-4-((1s,4s)-4-(5-fluoro-1H-benzo[d]imidazol-2-yl)cyclohexyl)quinoline] had an EC50 in test [2] of 73 nM.

Consider `Fc1ccc2nccc([C@H]3CC[C@H](c4nc5cc(Cl)ccc5[nH]4)CC3)c2c1` [Example C2a, 4-((1r,4r)-4-(5-chloro-1H-benzo[d]imidazol-2-yl)cyclohexyl)-6-fluoroquinoline], for which the EC50 in test [2] was 74 nM.

`Fc1ccc2nccc([C@H]3CC[C@H](c4nc5cc(F)c(F)cc5[nH]4)CC3)c2c1` [Example C7a, 4-((1r,4r)-4-(5,6-difluoro-1H-benzo[d]imidazol-2-yl)cyclohexyl)-6-fluoroquinoline]: in test [2], the EC50 worked out at 1360 nM.

Molecule `CC(C)c1ccc2[nH]c(C[C@H]3CC[C@H](c4ccnc5ccc(F)cc54)CC3)nc2c1` [Example A5a, 6-fluoro-4-((1r,4r)-4-((5-isopropyl-1H-benzo[d]imidazol-2-yl)methyl)cyclohexyl)quinoline] came in with an EC50 in test [2] of 184 nM.

`CC(C)OC(=O)c1ccc2nc([C@H](C)[C@H]3CC[C@@H](c4ccnc5ccc(F)cc54)CC3)[nH]c2c1` [B176] registered an EC50 in test [2] of 2.9 nM.

`CC(c1nc2c(ccc3ncccc32)[nH]1)[C@H]1CC[C@@H](c2ccnc3ccc(F)cc32)CC1` (stereo partly drawn) [B150] registered an EC50 in test [2] of 10.9 nM.

`C[C@@H](c1nc2ccc(C3=NCCO3)cc2[nH]1)[C@H]1CC[C@@H](c2ccnc3ccc(F)cc32)CC1` [Example B197, 2-(2-((R)-1-((1s,4S)-4-(6-fluoroquinolin-4-yl)cyclohexyl)ethyl)-1H-benzo[d]imidazol-6-yl)-4,5-dihydrooxazole] yielded a half-maximal effective concentration (EC50) in test [2] of 8.1 nM.

Consider `C[C@@H](c1nc2cc(-c3ncccn3)ccc2[nH]1)[C@H]1CC[C@@H](c2ccnc3ccc(F)cc32)CC1` [Example B157, 6-fluoro-4-((1S,4s)-4-((R)-1-(5-(pyrimidin-2-yl)-1H-benzo[d]imidazol-2-yl)ethyl)cyclohexyl)quinoline], for which the EC50 in test [2] worked out at 3.8 nM.

The molecule `C[C@H](c1nc2ccc(Cl)cc2[nH]1)C1CCC(c2cnc3ccccc3c2)CC1` (stereo partly drawn) [Example B25a, (S)-3-(4-(1-(6-chloro-1H-benzo[d]imidazol-2-yl)ethyl)cyclohexyl)quinoline] came in with a concentration giving a half-maximal response (EC50) in test [2] of 5.1 nM.

The molecule `COC(=O)c1ccc2[nH]c([C@@H](C)[C@H]3CC[C@@H](c4ccnc5ccc(F)cc54)CC3)nc2c1` [Example B3a, methyl 2-((S)-1-((1s,4R)-4-(6-fluoroquinolin-4-yl)cyclohexyl)ethyl)-1H-benzo[d]imidazole-5-carboxylate] came in with a concentration giving a half-maximal response (EC50) in test [2] of 0.55 nM.

In the case of `FC(F)(F)c1cc(C2CCC(Cc3nc4cc(Cl)ccc4[nH]3)CC2)ccn1` (stereo not drawn) [Example A29, 5-chloro-2-((4-(2-(trifluoromethyl)pyridin-4-yl)cyclohexyl)methyl)-1H-benzo[d]imidazole], the half-maximal effective concentration (EC50) in test [2] was determined as 179 nM.

On to `COC(=O)c1cc(C)c2nc([C@H](C)[C@H]3CC[C@@H](c4ccnc5ccc(F)cc54)CC3)[nH]c2c1` [Example B141, methyl 2-((R)-1-((1s,4S)-4-(6-fluoroquinolin-4-yl)cyclohexyl)ethyl)-4-methyl-1H-benzo[d]imidazole-6-carboxylate], for which the midpoint of the response in test [2], the EC50, lay at 6.89 nM.

Regarding `CC(C)c1ccc2[nH]c(C[C@H]3CC[C@@H](c4ccnc5ccc(F)cc54)CC3)nc2c1` [Example A5b, 6-fluoro-4-((1s,4s)-4-((5-isopropyl-1H-benzo[d]imidazol-2-yl)methyl)cyclohexyl)quinoline], a half-maximal effect in test [2] (EC50) was put at 23 nM.
